This is an account of results in patent publication US20100022574A1, “Methods to Treat Pain Using an Alpha-2 Adrenergic Agonist and an Endothelin Antagonist” (EndogenX, Inc., priority 2008, published 2010).

One series has as its target I1-imidazoline receptors. The settings on record: cited from earlier work.
The next series concerns the target α2-adrenergic receptors. The settings on record: cited from earlier work.
For the next series, the system named is rats. The settings on record: rats; for effect of antagonist on Clonidine potentiation of Morphine analgesia / effect of antagonist on Clonidine potentiation of Oxycodone analgesia: idazoxan 2 mg/kg ip or yohimbine 2 mg/kg ip given 15 min before clonidine 1 mg/kg ip; for AUC0→360 of tail flick latency: each agent alone: morphine 8 mg/kg sc, Mean±S.E.M., n=6.

The test system of another series is goats. The settings on record: epidural; cited from earlier work.
The target in a further series is μ-opioid receptors (Homo sapiens, UniProt P35372). The settings on record: relative to morphine; cited from earlier work.
μ-opioid receptors, sequence (P35372 whole entry): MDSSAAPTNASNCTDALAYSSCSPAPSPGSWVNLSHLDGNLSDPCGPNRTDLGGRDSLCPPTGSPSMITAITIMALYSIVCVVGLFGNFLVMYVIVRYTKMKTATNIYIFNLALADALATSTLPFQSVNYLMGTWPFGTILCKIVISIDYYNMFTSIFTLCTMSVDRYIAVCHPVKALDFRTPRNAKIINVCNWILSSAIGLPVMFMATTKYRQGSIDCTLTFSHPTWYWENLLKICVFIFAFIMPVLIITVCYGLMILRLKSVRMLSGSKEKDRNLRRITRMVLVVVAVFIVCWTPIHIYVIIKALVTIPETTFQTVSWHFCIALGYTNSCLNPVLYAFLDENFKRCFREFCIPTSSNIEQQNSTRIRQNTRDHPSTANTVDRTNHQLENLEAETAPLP
For a further series, the system named is Male Swiss Webster mice. Description: Tail-flick latency (antinociception) in mice. The note with it: for increase in tail flick latency: BMS182874 10 μg/kg icv + clonidine 0.3 mg/kg i.p. (In hot-plate and tail-flick tests a longer latency is read as antinociception.)
The next series is described as follows: Body temperature in mice. The note with it: BMS182874 2.0, 10.0, 50.0 μg/kg icv; clonidine 0.3 mg/kg i.p.
Series [1] has as its system patients having coronary artery bypass graft surgery. The settings on record: cited from earlier work.
Where [2] appears, read: clonidine 1 mg/kg ip, BMS182874 50 μg icv, oxycodone 4 mg/kg sc.

In general, Ki refers to the dissociation constant of the complex between target and ligand, obtained from inhibition or displacement.

Entries after “also recorded” stand apart in the source; their conditions may differ. Counter-ions that a name gives are not always drawn. Like-named read-outs stand apart in the source and are kept apart here. Bounds are passed on as bounds.

As for `c1ccc2c(c1)OCC(C1=NCCN1)O2` (stereo not shown) [Idazoxan, 2-(1,4-benzodioxan-2-yl)-2-imidazoline], the values for the Ki on I1-imidazoline receptors and at α2-adrenergic receptors were 0.186 µM and 0.0036 µM, respectively. Also, the “effect of antagonist on Clonidine potentiation of Morphine analgesia” value in the series on rats was “did not affect; also recorded: No effect”. Also, the “effect of antagonist on Clonidine potentiation of Oxycodone analgesia” value in the series on rats (oxycodone 4 mg/kg sc) is recorded as “Blocked”.
As for `COC(=O)[C@@H]1[C@H]2C[C@H]3c4[nH]c5ccccc5c4CCN3C[C@@H]2CC[C@@H]1O` [Yohimbine, 17α-hydroxy-yohimban-16α-carboxylate hydrochloride], the values for the Ki on I1-imidazoline receptors and on α2-adrenergic receptors were 21.8 µM and 0.022 µM, respectively. In addition, in the series on rats (hydrochloride), the “effect of antagonist on Clonidine potentiation of Morphine analgesia” value was “Blocked”. The “effect of antagonist on Clonidine potentiation of Oxycodone analgesia” value with rats (oxycodone 4 mg/kg sc, hydrochloride) is reported as “Blocked”.
For the molecule `N=C(N)NC(=O)Cc1c(Cl)cccc1Cl` [guanfacine], the duration of antinociception with goats was 8 h.
With `COc1ccc2c3c1O[C@H]1C(=O)CC[C@@]4(O)[C@@H](C2)N(C)CC[C@]314.Cl` [Oxycodone, 4,5α-epoxy-14-hydroxy-3-methoxy-17-methylmorphinan-6-one hydrochloride], on μ-opioid receptors, the “affinity to the μ-opioid receptors, times less than morphine” value was greater than 20 times. Besides, the “AUC0→360 of tail flick latency” value with rats (setting [2]) turned out to be 18.23±2.32 sec.min.
Turning to `Cc1noc(NS(=O)(=O)c2cccc3c(N(C)C)cccc23)c1C` [BMS182874, 5-(dimethylamino)-N-(3,4-dimethyl-5-isoxazolyl)-1-naphthalene sulfonamide], the “increase in tail flick latency” value with Male Swiss Webster mice (1 and 2 hours post treatment, compared to vehicle of FIG. 5A) is 5 fold; in the series with Male Swiss Webster mice (4 hours post treatment) it was “approximately 3 fold”; in the series on Male Swiss Webster mice (by 6 hours post treatment) it was 2 fold. The “effect on clonidine analgesia” value in the series on Male Swiss Webster mice (BMS182874 low and high dose (2.0 and 50.0 μg/kg, icv), clonidine 0.3 mg/kg i.p.) was “moderately potentiated”. Besides, the “effect on the analgesic effect of clonidine” value with Male Swiss Webster mice (BMS182874 middle dose 10 μg/kg icv, clonidine 0.3 mg/kg i.p.) is on record as “potentiated”. In addition, the “effect on the fall in temperature induced by clonidine” value in “Body temperature in mice” is recorded as “did not affect”. Also, the “effect on analgesic activity of clonidine” value with rats (BMS182874 50 μg icv 15 min before clonidine 1.0 mg/kg ip) was “did not affect”. Moreover, the “analgesic effect of the agent alone (tail flick latency)” value in the series with rats (BMS182874 50 μg icv, clonidine 1 mg/kg ip) was “did not produce any analgesic effect”. Also, the “effect on Morphine analgesia” value with rats (clonidine 1 mg/kg ip or BMS182874 50 μg icv, morphine 8 mg/kg sc) is “significantly potentiated; also recorded: Increase”. In the series with rats (clonidine 1 mg/kg ip or BMS182874 50 μg icv, oxycodone 4 mg/kg sc), the “effect on Oxycodone analgesia” value is “potentiated; also recorded: Increase”. Besides, in the series with rats (setting [2]), the “AUC0→360 of tail flick latency” value is given as 4.47±1.49 sec.min.
Turning to `CN1CC[C@]23c4c5ccc(O)c4O[C@H]2[C@@H](O)C=C[C@H]3[C@H]1C5.O=S(=O)(O)O` [Morphine, 7,8-didehydro-4,5α-epoxy-17-methylmorphinan-3,6α-diol sulfate], the “morphine dosage in the first 24 h [median (25th-75th percentiles)]” value in series [1] (i.v. morphine group (PCA alone, control)) was 37 (30.5-51) mg; in series [1] (intrathecal morphine group (4 microg/kg plus i.v. PCA morphine)), 40.5 (15-61.5) mg. The time to extubation in series [1] (i.v. morphine group) is on record as 330 (300-360) min.
